The record followed here is US20100152165A1, “CARBOXYLIC ACID DERIVATIVES” (priority 2006, published 2010).

Experiment [1] has as its target T1, human GPR40 (Homo sapiens, UniProt O14842).
T1 construct: expressed in transfected cells
Kind of experiment: GPR40 agonist activity measurement (FLIPR, intracellular calcium). The note with it: human GPR40-expressed CHO cell strain; fluorescence intensity change one minute after measurement. The format is cell-based. From the text: Test Method 1: GPR40 Agonist Activity Measurement
i) Cloning of Human GPR40
In accordance with the following procedure, complete length sequence of GPR40 was obtained by a PCR method using a human genomic DNA (Clontech) as the template.
An oligonucleotide consisting of the nucleotide sequence represented by SEQ ID NO:1 was used as the forward primer, and an oligonucleotide consisting of the nucleotide sequence represented by SEQ ID NO:2 as the reverse primer. In this connection, a nucleotide sequence containing a XbaI recognition sequence is added to the […] of each of the aforementioned forward primer and reverse primer. In the PCR, a cycle consisting of 94° C. (15 seconds)/55° C. (30 seconds)/72° C. (1 minute) was repeated 30 times using a Taq DNA polymerase (Ex Taq DNA polymerase; Takara Bio) in the presence of 5% dimethyl sulfoxide (DMSO). As a result, a DNA fragment of about 0.9 kbp was amplified. This DNA fragment was digested with XbaI and then inserted into the XbaI site of a plasmid pEF-BOS-dhfr (Nucleic Acids Research, 18, 5322, 1990) to obtain a plasmid pEF-BOS-dhfr-GPR40.
Nucleotide sequence of GPR40 gene in the plasmid pEF-BOS-dhfr-GPR40 was determined by the dideoxy terminator method using a DNA sequencer (ABI 377 DNA Sequencer; Applied Biosystems). Nucleotide sequence of the GPR40 gene was as the nucleotide sequence represented by SEQ ID NO:3.
ii) Preparation of GPR40 Stable Expression Cell
A CHO dhfr cell (a dihydrofolate reductase (dhfr) gene-deficient CHO cell) was used as the cell for expressing GPR40 protein. In addition, the plasmid pEF-BOS-dhfr-GPR40 obtained in the aforementioned i) was used as the expression plasmid for expressing the GPR40 protein. The CHO dhfr cell in 10% fetal calf serum (FCS)-containing aMEM medium was inoculated into a 6 well plate and cultured overnight to a stage of 80 to 90% confluent, and then gene transfer of 2 μg per well of the plasmid pEF-BOS-dhfr-GPR40 was carried out using a transfection reagent (Lipofectamine 2000; Invitrogen). After 24 hours of the culturing since the gene transfer, the cells were diluted and inoculated again. […] After 20 days of culturing, the thus formed colonies of cells were individually recovered and cultured to obtain CHO cells stably expressing GPR40. Cells showing high reactivity for integral ligands oleic acid and linoleic acid were selected from them.
iii) GPR40 Agonist Activity Measurement
This test was measured by FLIPR (registered trade mark, Molecular Device) using change in the intracellular calcium concentration as the index. The test method is shown below.
A human GPR40-expressed CHO cell strain was inoculated in 6×10^3 cells per well portions into a 384 well black plate (Becton-Dickinson). A Calcium-3 assay kit (Molecular Device) was used as the […] and dissolved in 10 ml per bottle of HBSS-HEPES buffer (pH 7.4, 1×HBSS, 20 mM HEPES, Invitrogen). A 35.68 mg portion of probenecid (Sigma) was dissolved in 250 μl of 1 M NaOH and then adjusted by adding 250 μl of HBSS-HEPES buffer. The fluorescence pigment solution was prepared by mixing 16 ml of HBSS-HEPES buffer, 640 μl of the fluorescence pigment and 32 μl of probenecid, per plate. The medium in the plate was discarded, and the fluorescence pigment solution was dispensed in 40 μl per well portions and incubated at room temperature for 2 hours. Each compound to be tested was dissolved in DMSO, diluted with HBSS-HEPES buffer and then dispensed in 10 μl portions into the plate to start the reaction and measure change in the intracellular calcium concentration by FLIPR. EC50 values of the compounds to be tested were calculated from the dose-response curve of fluorescence intensity changes one minute after the measurement.
A general note: Calcium assays in cells follow changes in intracellular calcium, usually with a dye or a luminescent sensor.

In experiment [2] the test system is normal mice. The experiment can be described thus: Normal mice single administration oral glucose tolerance test. The note with it: male ICR mice; 10 mg/kg oral 30 minutes before glucose (2 g/kg) loading; at 30 minutes of glucose loading, based on control group. The format is in vivo. As to the method:
Test Method 3: Normal Mice Single Administration Oral Glucose Tolerance Test
This test examined on the blood glucose suppressive action of compounds to be tested after glucose loading using normal mice. Male ICR mice (6 weeks of age) were reared for 1 week in advance, subjected to overnight fasting and then used as animals to be tested. Each compound to be tested was prepared into a 0.5% methyl cellulose suspension and orally administered at a dose of 10 mg/kg 30 minutes before the glucose (2 g/kg) loading. In the control group, 0.5% methyl cellulose was administered. Blood glucose decreasing ratio (%) at the time of 30 minutes of glucose loading was calculated based on the control group.

In experiment [3] the test system is MIN6 cell. The experiment can be described thus: Insulin secretion promoting action using MIN6 cell. The note with it: relative activity value at 1 μM of compound, control (DMSO) 100%; KRB-HEPES with 2.8 mM or 22.4 mM glucose, 37° C. 2 hours. The format is cell-based, mouse. As to the method: Test Method 2: Insulin Secretion Promoting Action using MIN6 Cell
In this test, the insulin secretion promoting action of compounds to be tested was examined using a mouse pancreatic β cell strain, MIN6 cell. The test method is shown below.
The MIN6 cell was inoculated onto a 96 well plate to a density of 5×10^4 cells/well (200 μl). As the medium, DMEM medium (25 mM glucose) containing 10% FBS, 55 μM of 2-mercaptoethanol, 100 U/ml of penicillin and 100 μg/ml of streptomycin was used. Two days thereafter, the medium was removed using an aspirator, and the plate was once washed with 200 μl of KRB-HEPES (116 mM NaCl, 4.7 mM KCl, 1.2 mM KH2PO4, 1.2 mM MgSO4, 0.25 mM CaCl2, 25 mM NaHCO3, 0.005% FFA Free BSA, 24 mM HEPES (pH 7.4)) containing 2.8 mM glucose, which had been warmed up to 37° C., and again filled with 200 μl of the same buffer and incubated at 37° C. for 1 hour. After removing the aforementioned buffer using an aspirator, this was again washed with the buffer (200 μl), and then a predetermined concentration of each compound to be tested was added to KRB-HEPES containing 2.8 mM or 22.4 mM of glucose, added in 100 μl portions to respective wells and incubated at 37° C. for 2 hours. The aforementioned samples were collected and diluted 100 times, and the insulin concentration was determined using an insulin RIA kit (Amersham). […]

T1 sequence (O14842 whole entry R211H): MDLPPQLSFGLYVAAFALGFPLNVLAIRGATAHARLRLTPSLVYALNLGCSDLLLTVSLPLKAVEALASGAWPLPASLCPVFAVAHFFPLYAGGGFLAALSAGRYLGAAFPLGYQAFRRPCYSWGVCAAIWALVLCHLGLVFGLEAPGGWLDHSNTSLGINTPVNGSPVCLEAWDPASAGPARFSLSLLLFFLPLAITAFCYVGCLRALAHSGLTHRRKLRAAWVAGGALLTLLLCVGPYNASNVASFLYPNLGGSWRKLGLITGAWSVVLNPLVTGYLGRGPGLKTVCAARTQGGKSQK

Consider `O=C(O)[C@@H]1C[C@H]1c1ccc(NCc2cccc3c2CCCN3CCOc2ccccc2)cc1` [Example 455], for which, in experiment [1], the EC50 was 360 nM.
Still for that read-out and setting: for `O=C(O)CCc1ccc(NCc2ccc3c(c2)N(c2ccccc2)CCC3)cc1F` [Example 86] the value was 19 nM; for `Cc1ccc(CNc2ccc(CCC(=O)O)c(F)c2)c2c1N(CCOc1ccccc1)CCC2` [Example 424], 130 nM.
For the compound `COc1ccccc1CCN1CCCc2ccc(CNc3ccc(CCC(=O)O)c(F)c3)c(C)c21` [Example 188], the EC50 in experiment [1] was determined as 36 nM. Besides, in experiment [2], the “Blood glucose decreasing ratio” value stood at 24%.
Consider `Cc1c(CNc2ccc(CCC(=O)O)c(F)c2)ccc2c1N(c1ccc(C(F)(F)F)cc1)CCC2` [Example 211], for which the EC50 in experiment [1] is 930 nM.
Regarding `O=C(O)CCc1ccc(NCc2cccc3c2CCCN3CCOc2ccccc2)cc1F` [Example 104], the “Insulin secretion promoting action” value in experiment [3] worked out at 162%. The EC50 in experiment [1] came to 420 nM. In addition, the “Blood glucose decreasing ratio” value in experiment [2] was 20%.
Regarding `CC(=O)N1CCCc2ccc(COc3ccc(CCC(=O)O)c(F)c3)cc21` [Example 74], the half-maximal effective concentration (EC50) in experiment [1] came out at 75 nM.
Same read-out and setting: for `COc1ccccc1OCCN1CCCc2c(CNc3ccc(CCC(=O)O)c(F)c3)cccc21` [Example 176] the value was 91 nM.
On the same count and under the same terms, then `CCCN1CCCc2c(CNc3ccc(CCC(=O)O)c(F)c3)cccc21` [Example 87], with 82 nM.
In the case of `Cc1c(CNc2ccc(CCC(=O)[O-])c(F)c2)ccc2c1N(c1ccccn1)CCC2.[Na+]` [Example 453], in experiment [1], the EC50 was 25 nM. The “Blood glucose decreasing ratio” value in experiment [2] is listed as 24%.
Consider `O=C(O)CCc1ccc(NCc2cccc3c2CCCN3CCc2ccccc2)cc1F` [Example 89], for which the EC50 in experiment [1] was 620 nM. In experiment [2], the “Blood glucose decreasing ratio” value is given as 21%.
As for `O=C(O)CCc1ccc(OCc2ccc3c(c2)N(CCC(F)(F)F)CCC3)cc1F` [Example 73], the EC50 in experiment [1] amounted to 73 nM.
Still for that read-out and setting: for `Cc1cccc(N2CCCc3ccc(CNc4ccc(CCC(=O)O)c(F)c4)c(C)c32)c1` [Example 215] the value was 320 nM; for `O=C(O)CCc1ccc(NCc2cccc3c2CCCN3CCOc2ccccc2)nc1` [Example 437], 730 nM.
Consider `CCCN1CCCc2cccc(CNc3ccc(CCC(=O)[O-])c(F)c3)c21.[Na+]` [Example 57], for which, in experiment [3], the “Insulin secretion promoting action” value turned out to be 167%. Besides, the concentration for a half-maximal effect (EC50) in experiment [1] is 97 nM.

In general, EC50 refers to the concentration needed to bring the measured effect to its halfway point.
